Measured values: ChEMBL document CHEMBL2086282, “2-Substituted 4,5-dihydrothiazole-4-carboxylic acids are novel inhibitors of metallo-β-lactamases” (Bioorg Med Chem Lett, 2012)

Experiments:
Beta-lactamase = Beta-lactamase (Pseudomonas aeruginosa, UniProt Q79MP6)
Beta-lactamase II [1] = target: T1, Beta-lactamase II (Bacillus anthracis, UniProt Q93T40)
T1 sequence (Q93T40 whole entry): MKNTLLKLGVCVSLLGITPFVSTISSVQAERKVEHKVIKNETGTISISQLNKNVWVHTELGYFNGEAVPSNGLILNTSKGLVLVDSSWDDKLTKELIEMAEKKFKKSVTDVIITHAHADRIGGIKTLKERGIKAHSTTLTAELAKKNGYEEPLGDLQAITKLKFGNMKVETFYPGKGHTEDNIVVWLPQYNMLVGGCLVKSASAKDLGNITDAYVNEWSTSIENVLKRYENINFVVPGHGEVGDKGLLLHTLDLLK

Beta-lactamase II [2] = target: T1, Beta-lactamase II; remark: listed apart in the source

Beta-lactamase, sequence (Q79MP6 whole entry): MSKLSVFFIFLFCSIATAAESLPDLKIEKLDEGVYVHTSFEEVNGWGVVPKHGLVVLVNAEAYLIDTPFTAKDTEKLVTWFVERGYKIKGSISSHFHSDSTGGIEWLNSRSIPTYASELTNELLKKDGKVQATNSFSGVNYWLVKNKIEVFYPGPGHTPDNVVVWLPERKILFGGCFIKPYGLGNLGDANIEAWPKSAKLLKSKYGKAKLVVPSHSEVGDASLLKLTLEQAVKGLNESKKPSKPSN

Compound	IC50 (Beta-lactamase)	IC50 (Beta-lactamase II [1])	Ki (Beta-lactamase II [1])	IC50 (Beta-lactamase II [2])
O=C(O)c1csc(-c2ccccc2)n1	> 200 µM	> 200 µM	–	–
O=C(O)[C@@H]1CSC(c2ccccc2)N1 (stereo partly drawn)	> 200 µM	> 200 µM	–	–
O=C(O)c1csc(Cc2ccccc2)n1	–	> 200 µM	–	–
O=C(Cc1ccccc1)NCC1=N[C@H](C(=O)O)CS1	> 200 µM	> 200 µM	–	–
O=C(O)[C@@H]1CSC(Cc2ccccc2)=N1	> 200 µM	> 200 µM	–	–
O=C(O)[C@@H]1CSC(Cc2ccccc2)N1 (stereo partly drawn)	> 200 µM	> 200 µM	–	–
O=C(O)[C@@H]1CSC(c2ccc(Cl)cc2)=N1	> 200 µM	> 200 µM	–	–
O=C(O)[C@@H]1CSC(c2ccc(Br)cc2)=N1	> 200 µM	> 200 µM	–	–
Nc1cccc(C2=N[C@H](C(=O)O)CS2)c1	77 µM	4.9 µM	5.1 µM	–
CC(=O)Nc1cccc(C2=N[C@H](C(=O)O)CS2)c1	> 200 µM	> 200 µM	–	–
CC(C)(C)OC(=O)Nc1cccc(C2=N[C@H](C(=O)O)CS2)c1	> 200 µM	74.1 µM	–	–
COc1cccc(CC(=O)NCC2=N[C@H](C(=O)O)CS2)c1	> 200 µM	> 200 µM	–	–
CC(C)(C)OC(=O)NCC1=N[C@H](C(=O)O)CS1	> 200 µM	> 200 µM	–	–
O=C(NCC1=N[C@H](C(=O)O)CS1)OCc1ccccc1	> 200 µM	> 200 µM	–	–
O=C(O)[C@@H]1CSC(c2ccccc2O)=N1	> 200 µM	> 200 µM	–	–
C[C@H](CS)C(=O)N1CCC[C@H]1C(=O)O [CAPTOPRIL]	–	25.8 µM	17.9 µM	–
O=C(O)CN(CCN(CC(=O)O)CC(=O)O)CC(=O)O [EDETIC ACID]	–	–	–	1060 µM
